The text below walks through data of patent US12247032B2, “Substituted pyrazolo[1,5-a]pyrimidines as inhibitors of JAK kinases” (Genentech, Inc., priority 2019, dated 2025).

For test [1], the system named is JAK2 pathway (P-STAT5 in TF-1 human erythroleukemia cells + EPO). In words: P-STAT5 TF-1+Erythropoietin (EPO) assay. In kind it is cell-based. The conditions noted are these: TF-1 cells, 30 minutes compound, EPO 30 min, IC50 by four-parameter fit, read-out: Cellular (JAK2 PSTAT5 TF1 + EPO). As to the method:
(§1) TF-1 human erythroleukemia cells (ATCC®; Manassas, VA; Catalog No. CRL-2003™) were grown in Roswell Park Memorial Institute (RPMI) medium supplemented with 10% heat-inactivated fetal bovine serum (FBS), 2 ng/mL granulocyte-macrophage colony-stimulating factor, 1× non-essential amino acids (NEAA), and 1 mM sodium pyruvate. The day before the assay, the cultures were transferred to Opti-MEM™, 1×NEAA, 1 mM sodium pyruvate, and 0.5% charcoal-stripped FBS (starve medium). Inhibitor stock solutions (5 mM in DMSO) were serially diluted 1:2 in DMSO to generate a 10-point concentration titration (at 500× test concentration), which was further diluted by a 50-fold dilution in Assay Medium (RPMI containing 1×NEAA and 1 mM sodium pyruvate) to generate a 10× concentration titration (in 2% DMSO). The cells (300,000 cells/well in 35 μL of Assay Medium) were seeded in 384-well Greiner plates. Diluted inhibitor at 10× concentration (5 μL) was added to the cells and the plates were incubated for 30 minutes at 37° C. in a humidified incubator. Cells were stimulated with the human recombinant cytokine at the respective EC90 concentrations, as previously determined for each individual lot. For the phosphorylated signal transducer and activator of transcription 6 (P-STAT6) TF-1+Interleukin-13 (IL-13) assay, 10 μL of 250 ng/mL IL-13 (R&D Systems; Minneapolis, MN) was added to the cells, which were then incubated for 10 minutes at 37° C. For the P-STAT5 TF-1+Erythropoietin (EPO) assay, 10 μL of 110 IU/mL EPO (Gibco Life Technologies, Catalog No. PHC2054) was added to the cells, which were then incubated for 30 min at 37° C. For both assays, the incubation was followed by addition to the cells of 5 μL of ice-cold 10× cell lysis buffer (Cell Signaling Technologies; Danvers, MA; Catalog No. 9803S) containing 1 mM phenylmethylsulfonyl fluoride (PMSF). Assay plates were frozen at −80° C. for a minimum of 1 hour. In the IL-13 assay, P-STAT6 was measured by coating goat anti-rabbit (GAR) plates (Meso Scale Discovery [MSD]; Rockville, MD; Catalog No. MSD L21RA-1) with rabbit anti-human total STAT6 antibody (Cell Signaling Technologies; Catalog No. 9362S), incubating the cell lysates in the coated plates overnight at 4° C., and then detecting with mouse anti-P-STAT6 (Tyr641) Clone 16E12 antibody (MilliporeSigma; Burlington, MA; Catalog No. 05-590, custom labeled by MSD with SULFO-tag) using standard MSD plate processing, washing, and detection protocols. In the EPO assay, P-STAT5 was detected using the phospho-STAT5a,b Whole Cell Lysate Kit (MSD; Catalog No. K150IGD-1). The electrochemiluminescence (ECL) signal of wells was read on the MESO SECTOR S600 (MSD) reader.
(§2) Data analysis was performed by subtracting the negative control (cytokine stimulated and 20 μM control inhibitor-treated cells) mean ECL value from the ECL value of all wells, determining percent of control for test compound well ECL values relative to the positive control (cytokine stimulated and DMSO-treated cells) mean ECL value, and determining the IC50 for test compounds with a four-parameter logistic fit model as shown in Equation 4.

Test [2] deals with JAK1 pathway (P-STAT6 in TF-1 human erythroleukemia cells + IL-13). As to the kind of experiment: P-STAT6 TF-1+Interleukin-13 (IL-13) assay. In kind it is cell-based. The conditions noted are these: TF-1 cells, 30 minutes compound, IL-13 10 minutes, IC50 by four-parameter fit, read-out: Cellular PSTAT6 TF-1 + IL13. As to the method:
as §1, §2

In test [3] the test system is JAK1 (IL-13-stimulated STAT6 phosphorylation in BEAS-2B cells). As to the kind of experiment: P-STAT6 BEAS-2B+IL-13 cell assay. Format: cell-based, human. The conditions noted are these: 1 hour compound, IL-13 15 minutes, IC50 by four-parameter fit, read-out: Cellular JAK1 PSTAT6 BEAS2B + IL13. The method in brief:
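BEAS-2B human bronchial epithelial cells preincubated 1 h at 37 °C with compound, then stimulated with human recombinant IL-13 for 15 min. Phospho-STAT6 (Tyr641) in lysates measured by MSD electrochemiluminescence immunoassay; IC50 from a four-parameter logistic fit of percent of control.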

Where two headings read alike, the source gives them in different places.

For `O=C(Nc1cn(Cc2nnn(C3CCNC3)n2)nc1-c1cc(OC(F)F)ccc1OC(F)F)c1cnn2cccnc12` (single isomer, unassigned) [Example 27, N-[3-[2,5-bis(difluoromethoxy)phenyl]-1-[(2-pyrrolidin-3-yltetrazol-5-yl)methyl]pyrazol-4-yl]pyrazolo[1,5-a]pyrimidine-3-carboxamide], the IC50 in test [1] (Homo sapiens, TF-1, 0.5 h) was 17 nM; in test [2] (Homo sapiens, TF-1, 0.5 h) it was 13 nM; in test [3] (Homo sapiens, BEAS-2B, 1 h) it was 12 nM.
In the case of `O=C(Nc1cn(Cc2nnn(C3CCNC3)n2)nc1-c1cc(OC(F)F)ccc1OC(F)F)c1cnn2cccnc12` (single isomer, unassigned) [Example 28, N-[3-[2,5-bis(difluoromethoxy)phenyl]-1-[(2-pyrrolidin-3-yltetrazol-5-yl)methyl]pyrazol-4-yl]pyrazolo[1,5-a]pyrimidine-3-carboxamide], the IC50 in test [1] came to 19 nM; in test [2] it was 7.1 nM; in test [3], 12 nM.
Turning to `CN1CCC(N2CC(n3nnc(Cn4cc(NC(=O)c5cnn6cccnc56)c(-c5cc(OC(F)F)ccc5OC(F)F)n4)n3)C2)C1` (single isomer, unassigned) [Example 72, N-[3-[2,5-bis(difluoromethoxy)phenyl]-1-[[2-[1-(1-methylpyrrolidin-3-yl)azetidin-3-yl]tetrazol-5-yl]methyl]pyrazol-4-yl]pyrazolo[1,5-a]pyrimidine-3-carboxamide], the IC50 in test [1] (Homo sapiens, TF-1, 0.5 h) is 51 nM; in test [2] (Homo sapiens, TF-1, 0.5 h) it was 39 nM; in test [3] (Homo sapiens, BEAS-2B, 1 h) it was 36 nM.
On the same counts, the results for `CN1CC(n2nnc(Cn3cc(NC(=O)c4cnn5cccnc45)c(-c4cc(Cl)ccc4OC(F)F)n3)n2)C1` [Example 7, N-[3-[5-chloro-2-(difluoromethoxy)phenyl]-1-[[2-(1-methylazetidin-3-yl)tetrazol-5-yl]methyl]pyrazol-4-yl]pyrazolo[1,5-a]pyrimidine-3-carboxamide] are 13 nM, 5 nM and 9.8 nM.
The like results for `O=C(Nc1cn(Cc2nnn(C3CNC3)n2)nc1-c1cc(Cl)ccc1OC(F)F)c1cnn2cccnc12` [Example 8, N-[1-[[2-(azetidin-3-yl)tetrazol-5-yl]methyl]-3-[5-chloro-2-(difluoromethoxy)phenyl]pyrazol-4-yl]pyrazolo[1,5-a]pyrimidine-3-carboxamide] were, in that order, 13 nM, 8.4 nM and 9.3 nM.
The like results for `CN1CC(n2nnc(Cn3cc(NC(=O)c4cnn5cccnc45)c(-c4cc(OC(F)F)ccc4OC(F)F)n3)n2)C1` [Example 10, N-[3-[2,5-bis(difluoromethoxy)phenyl]-1-[[2-(1-methylazetidin-3-yl)tetrazol-5-yl]methyl]pyrazol-4-yl]pyrazolo[1,5-a]pyrimidine-3-carboxamide] were, in that order, 5.1 nM, 4 nM and 17 nM.
For `O=C(Nc1cn(Cc2nnn(C3CNC3)n2)nc1-c1cc(OC(F)F)ccc1OC(F)F)c1cnn2cccnc12` [Example 11, N-[1-[[2-(azetidin-3-yl)tetrazol-5-yl]methyl]-3-[2,5-bis(difluoromethoxy)phenyl]pyrazol-4-yl]pyrazolo[1,5-a]pyrimidine-3-carboxamide], the IC50 in test [1] (Homo sapiens, TF-1, 0.5 h) was determined as 10 nM; in test [2] (Homo sapiens, TF-1, 0.5 h), 9.5 nM; in test [3] (Homo sapiens, BEAS-2B, 1 h) it was 23 nM.
Regarding `O=C(Nc1cn(Cc2nnnn2C2CNC2)nc1-c1cc(OC(F)F)ccc1OC(F)F)c1cnn2cccnc12` [Example 12, N-[1-[[1-(azetidin-3-yl)tetrazol-5-yl]methyl]-3-[2,5-bis(difluoromethoxy)phenyl]pyrazol-4-yl]pyrazolo[1,5-a]pyrimidine-3-carboxamide], the IC50 was 51 nM in test [1] (Homo sapiens, TF-1, 0.5 h); 22 nM in test [2] (Homo sapiens, TF-1, 0.5 h); 31 nM in test [3] (Homo sapiens, BEAS-2B, 1 h).
On the same counts, the results for `NCCn1nnc(Cn2cc(NC(=O)c3cnn4cccnc34)c(-c3cc(OC(F)F)ccc3OC(F)F)n2)n1` [Example 13, N-[1-[[2-(2-aminoethyl)tetrazol-5-yl]methyl]-3-[2,5-bis(difluoromethoxy)phenyl]pyrazol-4-yl]pyrazolo[1,5-a]pyrimidine-3-carboxamide] are 10 nM, 18 nM and 11 nM.
On the same counts, the results for `NCCn1nnnc1Cn1cc(NC(=O)c2cnn3cccnc23)c(-c2cc(OC(F)F)ccc2OC(F)F)n1` [Example 14, N-[1-[[1-(2-aminoethyl)tetrazol-5-yl]methyl]-3-[2,5-bis(difluoromethoxy)phenyl]pyrazol-4-yl]pyrazolo[1,5-a]pyrimidine-3-carboxamide] are 46 nM, 45 nM and 39 nM.
The like results for `CN1CC(n2nnnc2Cn2cc(NC(=O)c3cnn4cccnc34)c(-c3cc(Cl)ccc3OC(F)F)n2)C1` [Example 15, N-[3-[5-chloro-2-(difluoromethoxy)phenyl]-1-[[1-(1-methylazetidin-3-yl)tetrazol-5-yl]methyl]pyrazol-4-yl]pyrazolo[1,5-a]pyrimidine-3-carboxamide] were, in that order, 7.2 nM, 3.4 nM and 8.6 nM.
`CN(C)CCn1nnc(Cn2cc(NC(=O)c3cnn4cccnc34)c(-c3cc(OC(F)F)ccc3OC(F)F)n2)n1` [Example 16, N-[3-[2,5-bis(difluoromethoxy)phenyl]-1-[[2-[2-(dimethylamino)ethyl]tetrazol-5-yl]methyl]pyrazol-4-yl]pyrazolo[1,5-a]pyrimidine-3-carboxamide]: the IC50 was 12 nM in test [1] (Homo sapiens, TF-1, 0.5 h); 12 nM in test [2] (Homo sapiens, TF-1, 0.5 h); 18 nM in test [3] (Homo sapiens, BEAS-2B, 1 h).
Regarding `CN(C)CCn1nnnc1Cn1cc(NC(=O)c2cnn3cccnc23)c(-c2cc(OC(F)F)ccc2OC(F)F)n1` [Example 17, N-[3-[2,5-bis(difluoromethoxy)phenyl]-1-[[1-[2-(dimethylamino)ethyl]tetrazol-5-yl]methyl]pyrazol-4-yl]pyrazolo[1,5-a]pyrimidine-3-carboxamide], the IC50 in test [1] (Homo sapiens, TF-1, 0.5 h) amounted to 9.7 nM; in test [2] (Homo sapiens, TF-1, 0.5 h) it was 2.7 nM; in test [3] (Homo sapiens, BEAS-2B, 1 h) it was 19 nM.
On to `O=C(Nc1cn(Cc2nnn(C3CCNCC3)n2)nc1-c1cc(OC(F)F)ccc1OC(F)F)c1cnn2cccnc12` [Example 18, N-[3-[2,5-bis(difluoromethoxy)phenyl]-1-[[2-(4-piperidyl)tetrazol-5-yl]methyl]pyrazol-4-yl]pyrazolo[1,5-a]pyrimidine-3-carboxamide], for which the IC50 was 19 nM in test [1] (Homo sapiens, TF-1, 0.5 h); 20 nM in test [2] (Homo sapiens, TF-1, 0.5 h); 35 nM in test [3] (Homo sapiens, BEAS-2B, 1 h).
The like results for `CNCCn1nnnc1Cn1cc(NC(=O)c2cnn3cccnc23)c(-c2cc(OC(F)F)ccc2OC(F)F)n1` [Example 19, N-[3-[2,5-bis(difluoromethoxy)phenyl]-1-[[1-[2-(methylamino)ethyl]tetrazol-5-yl]methyl]pyrazol-4-yl]pyrazolo[1,5-a]pyrimidine-3-carboxamide] were, in that order, 21 nM, 7 nM and 21 nM.
